From patent publication US10544143B2, “4-azaindole compounds” (BRISTOL-MYERS SQUIBB COMPANY, priority 2017, dated 2020)

Assays:
[1] = biological target: human TLR9 (Homo sapiens (Human), UniProt Q9NR96); experiment: TLR9 inhibition reporter assay (HEK-Blue SEAP); conditions: read-out: TLR9 IC50; HEK-Blue cells overexpressing human TLR9, ODN2006 5 nM stimulation, SEAP reporter;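 also: SEAP driven by an IFN-β minimal promoter with NF-κB and AP-1 sites, read after 22 h, compounds dosed 0.05 nM–50 µM, inhibition scaled between agonist plus DMSO and reference-inhibitor wells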
Sequence of human TLR9 (Q9NR96 26-1032): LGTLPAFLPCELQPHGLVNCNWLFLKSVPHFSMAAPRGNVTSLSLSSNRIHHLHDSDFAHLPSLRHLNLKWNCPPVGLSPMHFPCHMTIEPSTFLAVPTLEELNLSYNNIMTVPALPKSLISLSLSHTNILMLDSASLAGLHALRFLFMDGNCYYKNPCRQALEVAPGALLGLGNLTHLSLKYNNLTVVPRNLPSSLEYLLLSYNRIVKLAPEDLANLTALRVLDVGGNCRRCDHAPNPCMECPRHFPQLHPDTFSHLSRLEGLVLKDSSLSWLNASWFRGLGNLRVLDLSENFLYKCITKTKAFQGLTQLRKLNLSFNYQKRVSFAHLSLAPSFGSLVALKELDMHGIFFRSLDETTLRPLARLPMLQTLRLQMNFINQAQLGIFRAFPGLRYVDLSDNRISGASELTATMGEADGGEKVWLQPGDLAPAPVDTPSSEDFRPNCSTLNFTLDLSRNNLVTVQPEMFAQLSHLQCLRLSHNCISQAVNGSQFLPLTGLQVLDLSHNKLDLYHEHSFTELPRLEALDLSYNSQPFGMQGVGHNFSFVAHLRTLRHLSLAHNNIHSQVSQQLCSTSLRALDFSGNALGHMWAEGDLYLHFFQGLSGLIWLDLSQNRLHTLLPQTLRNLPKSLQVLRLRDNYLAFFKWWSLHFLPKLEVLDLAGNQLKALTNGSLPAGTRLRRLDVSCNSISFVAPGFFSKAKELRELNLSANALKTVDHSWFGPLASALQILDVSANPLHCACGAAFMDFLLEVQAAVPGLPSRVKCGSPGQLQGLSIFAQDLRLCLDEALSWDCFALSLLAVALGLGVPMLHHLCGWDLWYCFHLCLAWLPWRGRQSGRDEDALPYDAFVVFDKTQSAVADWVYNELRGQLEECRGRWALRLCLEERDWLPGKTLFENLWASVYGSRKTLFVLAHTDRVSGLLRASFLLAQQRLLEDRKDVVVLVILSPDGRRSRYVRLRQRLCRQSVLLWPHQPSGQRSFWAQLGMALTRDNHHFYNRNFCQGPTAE

[2] = biological target: human TLR8 (Homo sapiens (Human), UniProt Q9NR97); experiment: TLR8 inhibition reporter assay (HEK-Blue SEAP); conditions: read-out: TLR8 IC50; HEK-Blue cells overexpressing human TLR8, R848 15.9 μM stimulation, SEAP reporter;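 also: SEAP driven by IFN-β minimal promoter carrying NF-κB and AP-1 sites, compounds dosed 0.05 nM to 50 µM for 22 h, inhibition scaled between agonist-plus-DMSO and reference-inhibitor wells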
Sequence of human TLR8 (Q9NR97 27-1041): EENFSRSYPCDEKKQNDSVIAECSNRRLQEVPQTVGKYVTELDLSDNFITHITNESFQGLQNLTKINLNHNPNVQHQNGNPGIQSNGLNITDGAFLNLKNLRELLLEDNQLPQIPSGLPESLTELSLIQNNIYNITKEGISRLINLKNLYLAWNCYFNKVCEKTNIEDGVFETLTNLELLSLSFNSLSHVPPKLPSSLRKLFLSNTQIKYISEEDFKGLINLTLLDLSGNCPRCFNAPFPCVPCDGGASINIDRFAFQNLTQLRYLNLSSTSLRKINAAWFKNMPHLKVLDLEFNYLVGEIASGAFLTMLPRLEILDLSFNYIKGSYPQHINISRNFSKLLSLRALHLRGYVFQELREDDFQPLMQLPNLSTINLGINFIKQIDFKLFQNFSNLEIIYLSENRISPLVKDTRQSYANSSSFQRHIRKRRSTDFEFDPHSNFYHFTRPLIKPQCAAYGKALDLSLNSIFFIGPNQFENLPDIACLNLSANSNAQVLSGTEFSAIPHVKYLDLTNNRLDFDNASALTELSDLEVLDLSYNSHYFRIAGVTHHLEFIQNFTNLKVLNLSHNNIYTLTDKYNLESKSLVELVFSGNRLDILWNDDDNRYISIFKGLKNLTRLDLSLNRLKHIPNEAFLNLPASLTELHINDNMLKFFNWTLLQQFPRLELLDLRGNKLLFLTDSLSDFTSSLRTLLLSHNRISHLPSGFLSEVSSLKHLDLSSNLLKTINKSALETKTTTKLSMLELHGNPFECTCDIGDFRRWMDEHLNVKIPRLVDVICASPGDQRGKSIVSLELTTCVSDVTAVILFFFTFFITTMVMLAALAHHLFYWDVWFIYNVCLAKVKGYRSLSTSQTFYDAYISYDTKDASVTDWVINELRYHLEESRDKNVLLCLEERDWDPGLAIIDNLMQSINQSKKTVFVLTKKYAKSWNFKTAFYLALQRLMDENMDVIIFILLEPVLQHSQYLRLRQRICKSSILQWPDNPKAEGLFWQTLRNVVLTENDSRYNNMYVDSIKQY

[3] = biological target: human TLR7 (Homo sapiens (Human), UniProt Q9NYK1); experiment: TLR7 inhibition reporter assay (HEK-Blue SEAP); assay type: cell-based; conditions: HEK-Blue cells overexpressing human TLR7, gardiquimod 7.5 μM stimulation, SEAP reporter
Sequence of human TLR7 (Q9NYK1 27-1049): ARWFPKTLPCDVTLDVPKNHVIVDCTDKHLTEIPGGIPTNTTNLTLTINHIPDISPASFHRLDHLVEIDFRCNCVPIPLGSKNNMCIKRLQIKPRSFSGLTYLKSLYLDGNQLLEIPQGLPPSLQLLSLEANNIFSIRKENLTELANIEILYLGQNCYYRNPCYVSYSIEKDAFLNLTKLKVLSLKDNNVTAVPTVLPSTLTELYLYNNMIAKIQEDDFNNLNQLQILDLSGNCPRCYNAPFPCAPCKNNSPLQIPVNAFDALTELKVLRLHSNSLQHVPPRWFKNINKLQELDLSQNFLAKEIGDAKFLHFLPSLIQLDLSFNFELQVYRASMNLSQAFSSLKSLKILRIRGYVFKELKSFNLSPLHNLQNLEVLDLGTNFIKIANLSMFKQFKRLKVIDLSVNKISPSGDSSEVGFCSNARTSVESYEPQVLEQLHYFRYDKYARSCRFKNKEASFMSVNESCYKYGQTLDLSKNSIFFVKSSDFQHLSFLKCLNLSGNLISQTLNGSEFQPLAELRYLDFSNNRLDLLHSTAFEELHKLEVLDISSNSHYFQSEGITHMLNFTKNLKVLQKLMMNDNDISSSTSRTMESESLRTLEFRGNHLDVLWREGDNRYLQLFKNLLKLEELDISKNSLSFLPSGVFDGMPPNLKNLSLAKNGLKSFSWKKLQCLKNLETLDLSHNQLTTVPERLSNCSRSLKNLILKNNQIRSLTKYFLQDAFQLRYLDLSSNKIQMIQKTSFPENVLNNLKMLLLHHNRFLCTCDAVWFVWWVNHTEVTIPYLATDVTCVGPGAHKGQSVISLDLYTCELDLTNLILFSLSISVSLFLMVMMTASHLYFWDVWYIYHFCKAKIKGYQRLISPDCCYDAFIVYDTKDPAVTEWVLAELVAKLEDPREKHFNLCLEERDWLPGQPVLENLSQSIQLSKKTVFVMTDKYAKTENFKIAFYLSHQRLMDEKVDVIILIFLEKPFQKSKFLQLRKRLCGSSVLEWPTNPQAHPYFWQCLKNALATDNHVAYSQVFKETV

Compound	IC50 [1] [nM]	IC50 [2] [nM]	IC50 [3] [nM]
COc1cc(-c2[nH]c3ccc(C4CCC(NC5COC5)CC4)nc3c2C(C)C)cn2ncnc12 (stereo not drawn) [Example 186]	1010	9.3	2.2
COc1cc(-c2[nH]c3ccc(C4CCC(N(C)C)CC4)nc3c2C(C)C)cn2ncnc12 (stereo not drawn) [Example 187]	4220	20	2.1
CNC1CCC(c2ccc3[nH]c(-c4cc(OC)c5ncnn5c4)c(C(C)C)c3n2)CC1 (stereo not drawn) [Example 188]	158	2.5	0.29
CNC1CCC(c2ccc3[nH]c(-c4cc(OC)c5ncnn5c4)c(C(C)C)c3n2)CC1 (stereo not drawn) [Example 189]	313	6.7	1.6
COc1cc(-c2[nH]c3ccc(C4CCC(N(C)CCO)CC4)nc3c2C(C)C)cn2ncnc12 (stereo not drawn) [Example 191]	202	2.7	0.9
COc1cc(-c2[nH]c3ccc(C4CCC(N5CCCC5)CC4)nc3c2C(C)C)cn2ncnc12 (stereo not drawn) [Example 192]	1110	19	3.1
COc1cc(-c2[nH]c3ccc(C4CCC(NC(C)C)CC4)nc3c2C(C)C)cn2ncnc12 (stereo not drawn) [Example 193]	648	6	1.5
COc1cc(-c2[nH]c3ccc(C4CCC(N5CCOCC5)CC4)nc3c2C(C)C)cn2ncnc12 (stereo not drawn) [Example 194]	3590	47	8.6
COc1cc(-c2[nH]c3ccc(C4CCC(N5CCCC5)CC4)nc3c2C(C)C)cn2ncnc12 (stereo not drawn) [Example 195]	530	4.3	0.8
COc1cc(-c2[nH]c3ccc(C4CCC(N5CCC[C@H]5CO)CC4)nc3c2C(C)C)cn2ncnc12 (stereo partly drawn) [Example 197]	134	1.7	0.34
COCCN(C)C1CCC(c2ccc3[nH]c(-c4cc(OC)c5ncnn5c4)c(C(C)C)c3n2)CC1 (stereo not drawn) [Example 198]	1140	7.8	1
COc1cc(-c2[nH]c3ccc(C4CCC(N5CCCC5)CC4)nc3c2C(C)C)cn2ncnc12 (stereo not drawn) [Example 199]	1190	6.4	0.16
COc1cc(-c2[nH]c3ccc(C4CCC(N(C)Cc5cnc(C)cn5)CC4)nc3c2C(C)C)cn2ncnc12 (stereo not drawn) [Example 202]	2030	28	3.8
COc1cc(-c2[nH]c3ccc(C4CCC(NCc5cnco5)CC4)nc3c2C(C)C)cn2ncnc12 (stereo not drawn) [Example 204]	1330	2.9	0.98

Further lines, results first:

IC50 [1] [nM]	IC50 [2] [nM]	IC50 [3] [nM]	Compound
2050	18	8.8	CC(C)c1c(-c2cn(C)c3ncccc23)[nH]c2ccc(C3CCC(NC4COC4)CC3)nc12 (stereo not drawn) [Example 184]
10300	110	38	CC(C)c1c(-c2cn(C)c3ncccc23)[nH]c2ccc(C3CCC(NC4COC4)CC3)nc12 (stereo not drawn) [Example 185]
353	2.8	0.8	COc1cc(-c2[nH]c3ccc(C4CCC(NCc5cnc(C)cn5)CC4)nc3c2C(C)C)cn2ncnc12 (stereo not drawn) [Example 190]
712	10	1.7	COc1cc(-c2[nH]c3ccc(C4CCC(NCc5cnc(C)cn5)CC4)nc3c2C(C)C)cn2ncnc12 (stereo not drawn) [Example 196]
773	8.5	1.8	CC(C)c1c(-c2cn(C)c3ncccc23)[nH]c2ccc(C3CCC(N(C)CC(=O)N(C)C)CC3)nc12 (stereo not drawn) [Example 200]
570	6	1.5	CC(C)c1c(-c2cn(C)c3ncccc23)[nH]c2ccc(C3CCC(N(C)CC(=O)N(C)C)CC3)nc12 (stereo not drawn) [Example 201]
537	7.9	2	COc1cc(-c2[nH]c3ccc(C4CCC(N(C)Cc5cnc(C)cn5)CC4)nc3c2C(C)C)cn2ncnc12 (stereo not drawn) [Example 203]
134	1	0.42	Cc1cnc(CNC2CCC(c3ccc4[nH]c(-c5cn(C)c6ncccc56)c(C(C)C)c4n3)CC2)cn1 (stereo not drawn) [Example 205]
